In the test the test system is mice. As to the kind of experiment: In vivo delivery of FLuc-mRNA lipid nanoparticles in mice, in vivo imaging (IVIS). The following applies: for % of organ targeting / IVIS: Fluc-mRNA LNP; for organ targeting specificity (spleen or lung), in words: Table 3, Fluc-mRNA, various formulations. Here is the method:
After the preparation was completed, the preparation was injected intramuscularly (mice rectus femoris muscle of the thigh), intravenously (mice tail vein), or intraperitoneal injection or subcutaneous injection (subcutaneous on the back), with approximately 75 μL per mouse, for a total of 3 mice. After a certain time of injection, in vivo imaging (PerkinElmer, IVIS Lumina III) was performed. 10-15 minutes before imaging, 200 μL of 15 mg/mL D-Luciferin working solution was injected intraperitoneally, and the imaging analysis was performed using an in vivo imager.

[1] abbreviates: route IM, 1 h (live), DSPE-PEG5000:DSPC:Chol:compound 1.40:11.15:38.95:48.50, N/P 30.
The mark [2] stands for this setting: route IM, 1 h (lung), DSPE-PEG5000:DSPC:Chol:compound 1.40:11.15:38.95:48.50, N/P 30.
[3] abbreviates: route IM, 1 h (spleen), DSPE-PEG5000:DSPC:Chol:compound 1.40:11.15:38.95:48.50, N/P 30.
The mark [4] stands for this setting: route IM, 2 h (live), DSPE-PEG5000:DSPC:Chol:compound 1.40:11.15:38.95:48.50, N/P 30.
Where [5] appears, read: route IM, 2 h (lung), DSPE-PEG5000:DSPC:Chol:compound 1.40:11.15:38.95:48.50, N/P 30.
The mark [6] stands for this setting: route IM, 2 h (spleen), DSPE-PEG5000:DSPC:Chol:compound 1.40:11.15:38.95:48.50, N/P 30.
Where [7] appears, read: route IM, 3 h (live), DSPE-PEG5000:DSPC:Chol:compound 1.40:11.15:38.95:48.50, N/P 30.
Setting [8] is: route IM, 3 h (lung), DSPE-PEG5000:DSPC:Chol:compound 1.40:11.15:38.95:48.50, N/P 30.
Setting [9] is: route IM, 3 h (spleen), DSPE-PEG5000:DSPC:Chol:compound 1.40:11.15:38.95:48.50, N/P 30.
The mark [10] stands for this setting: route IM, 6 h (live), DSPE-PEG5000:DSPC:Chol:compound 1.40:11.15:38.95:48.50, N/P 30.
[11] abbreviates: route IM, 6 h (lung), DSPE-PEG5000:DSPC:Chol:compound 1.40:11.15:38.95:48.50, N/P 30.
Setting [12] is: route IM, 6 h (spleen), DSPE-PEG5000:DSPC:Chol:compound 1.40:11.15:38.95:48.50, N/P 30.
The mark [13] stands for this setting: route IM, organ not given, formulation, molar ratio and N/P as in the table.
The mark [14] stands for this setting: route IV, organ: body, formulation, molar ratio and N/P as in the table.
[15] abbreviates: route IV, organ: liver, formulation, molar ratio and N/P as in the table.
Setting [16] is: route IV, organ: lung, formulation, molar ratio and N/P as in the table.
Where [17] appears, read: route IV, organ: spleen, formulation, molar ratio and N/P as in the table.
The mark [18] stands for this setting: route IM, organ: liver, formulation, molar ratio and N/P as in the table.
Where [19] appears, read: route IM, organ: lung, formulation, molar ratio and N/P as in the table.
[20] abbreviates: route IM, organ: muscle, formulation, molar ratio and N/P as in the table.
[21] abbreviates: route IM, organ: spleen, formulation, molar ratio and N/P as in the table.
The mark [22] stands for this setting: route IV, organ not given, formulation, molar ratio and N/P as in the table.

Regarding `CCCCCCC(CCCCCC)C(=O)OCCCCNC(=O)C(O)CN(CCN(C)CCN(CC(O)C(=O)NCCCCOC(=O)C(CCCCCC)CCCCCC)CC(O)C(=O)NCCCCOC(=O)C(CCCCCC)CCCCCC)CC(O)C(=O)NCCCCOC(=O)C(CCCCCC)CCCCCC` (centres unmarked) [Compound L0368], the “% of organ targeting” value is, setting by setting: under setting [1], 39.42%; under setting [2], 5.12%; under setting [3], 42.92%; under setting [4], 70.91%; under setting [5], 1.59%; under setting [6], 26.79%. Moreover, the “% of organ targeting” value runs as follows: under setting [7], 51.88%; under setting [8], 1.77%; under setting [9], 27.68%; under setting [10], 52.87%; under setting [11], 1.75%; under setting [12], 42.92%. The “% of organ targeting” value is given as 18.05% under setting [15], 7.99% under setting [16] and 73.95% under setting [17]. Besides, the IVIS by setting is: under setting [1], 3.95E+05; under setting [2], 5.13E+04; (route IM, 1 h (muscle), DSPE-PEG5000:DSPC:Chol:compound 1.40:11.15:38.95:48.50, N/P 30) 8.19E+07; under setting [3], 4.30E+05; under setting [4], 6.97E+06; under setting [5], 1.57E+05. Moreover, the IVIS worked out at 2.25E+08 (route IM, 2 h (muscle), DSPE-PEG5000:DSPC:Chol:compound 1.40:11.15:38.95:48.50, N/P 30); 2.64E+06 under setting [6]; 5.57E+06 under setting [7]; 1.89E+05 under setting [8]; 5.02E+08 (route IM, 3 h (muscle), DSPE-PEG5000:DSPC:Chol:compound 1.40:11.15:38.95:48.50, N/P 30); 2.97E+06 under setting [9]. For the same compound, the IVIS is, setting by setting: under setting [10], 1.53E+07; under setting [11], 5.04E+05; (route IM, 6 h (muscle), DSPE-PEG5000:DSPC:Chol:compound 1.40:11.15:38.95:48.50, N/P 30) 1.32E+08; under setting [12], 1.24E+07; under setting [13], 9.91E+07; under setting [14], 6.34E+07. The IVIS reads like this: under setting [15], 1.00E+07; under setting [16], 4.43E+06; under setting [17], 4.10E+07.

Regarding `CCCCCCC(CCCCCC)C(=O)NCCNC(=O)C(O)CN(CCCN(C)CCCN(CC(O)C(=O)NCCNC(=O)C(CCCCCC)CCCCCC)CC(O)C(=O)NCCNC(=O)C(CCCCCC)CCCCCC)CC(O)C(=O)NCCNC(=O)C(CCCCCC)CCCCCC` (centres unmarked) [Compound L0379], the “organ targeting specificity (spleen or lung), in words” value is reported as “strong targeting specificity to deliver to spleen”. In addition, under setting [18], the “% of organ targeting” value is 35.55% and the IVIS came out at 1.37E+06. For the same compound, under setting [19], the “% of organ targeting” value was determined as 3.16% and the IVIS worked out at 1.22E+05. The IVIS under setting [20] is given as 2.68E+08. For the same compound, under setting [21], the “% of organ targeting” value stood at 61.28% and the IVIS was 2.37E+06. Moreover, the IVIS under setting [22] worked out at 1.63E+09.

Consider `CCCCCCCCCCCCCCN(C)C(=O)C(O)CN(CCN(C)CCN(CC(O)C(=O)N(C)CCCCCCCCCCCCCC)CC(O)C(=O)N(C)CCCCCCCCCCCCCC)CC(O)C(=O)N(C)CCCCCCCCCCCCCC` (centres unmarked) [Compound L0356], for which the IVIS is, setting by setting: under setting [13], 1.62E+05; under setting [14], 2.19E+06; under setting [15], 1.12E+05; under setting [16], 1.18E+06; under setting [17], 2.63E+05. Also, the “% of organ targeting” value was 7.17% under setting [15], 75.97% under setting [16] and 16.86% under setting [17].

For `CCCCCCCCC(CCCCCC)C(=O)OCCCCNC(=O)C(O)CCN(CCCN(C)CCN(CC(O)C(=O)NCCCCOC(=O)C(CCCCCC)CCCCCCCC)CC(O)C(=O)NCCCCOC(=O)C(CCCCCC)CCCCCCCC)C(O)C(=O)NCCCCOC(=O)C(CCCCCC)CCCCCCCC` (centres unmarked) [Compound L0377], the “organ targeting specificity (spleen or lung), in words” value is reported as “strong targeting specificity to deliver to spleen”. Besides, under setting [18], the “% of organ targeting” value was found to be 35.08% and the IVIS was found to be 1.59E+05. Moreover, under setting [19], the “% of organ targeting” value is reported as 6.58% and the IVIS was found to be 2.98E+04. For the same compound, the IVIS under setting [20] amounted to 3.71E+07. Moreover, under setting [21], the “% of organ targeting” value stood at 58.34% and the IVIS worked out at 2.64E+05. Besides, the IVIS under setting [14] is 1.81E+08. Also, under setting [15], the “% of organ targeting” value stood at 38.23% and the IVIS amounted to 6.08E+07. For the same compound, under setting [16], the “% of organ targeting” value is recorded as 4.20% and the IVIS turned out to be 6.67E+06. Under setting [17], the “% of organ targeting” value turned out to be 57.57% and the IVIS is recorded as 9.15E+07.

For the compound `CCCCCCCCC(CCCCCC)C(=O)OCCCCCCNC(=O)C(O)CN(CCCN(CC(O)C(=O)NCCCCCCOC(=O)C(CCCCCC)CCCCCCCC)CC(O)C(=O)NCCCCCCOC(=O)C(CCCCCC)CCCCCCCC)CCCN(CC(O)C(=O)NCCCCCCOC(=O)C(CCCCCC)CCCCCCCC)CC(O)C(=O)NCCCCCCOC(=O)C(CCCCCC)CCCCCCCC` (centres unmarked) [Compound L0372], the IVIS by setting is: under setting [13], 7.60E+06; under setting [22], 4.83E+08.

With `CCCCCCCCCCCCNC(=O)C(O)CN(CCCN(C)CCN(C)CCCN(CC(O)C(=O)NCCCCCCCCCCCC)CC(O)C(=O)NCCCCCCCCCCCC)CC(O)C(=O)NCCCCCCCCCCCC` (centres unmarked) [Compound L0366], the IVIS under setting [13] is 4.56E+05.

Turning to `CCCCCCCCCCCCNC(=O)C(CN(CCCN(C)CCCN(CC(OC(=O)CCCCC)C(=O)NCCCCCCCCCCCC)CC(OC(=O)CCCCC)C(=O)NCCCCCCCCCCCC)CC(OC(=O)CCCCC)C(=O)NCCCCCCCCCCCC)OC(=O)CCCCC` (centres unmarked) [Compound L0389], the IVIS is reported as 1.99E+04 under setting [13] and 2.50E+05 under setting [22].

Consider `CCCCCCCCN(C)C(=O)C(O)CN(CCN(C)CCN(CC(O)C(=O)N(C)CCCCCCCC)CC(O)C(=O)N(C)CCCCCCCC)CC(O)C(=O)N(C)CCCCCCCC` (centres unmarked) [Compound L0352], for which the IVIS came out at 4.47E+05 under setting [13]; 1.95E+06 under setting [14]; 4.07E+05 under setting [15]; 2.38E+05 under setting [16]; 2.02E+06 under setting [17]. The “% of organ targeting” value came to 15.27% under setting [15], 8.93% under setting [16] and 75.80% under setting [17].

On to `CCCCCCCCC(CCCCCC)C(=O)OCCCCCCNC(=O)C(O)CN(CCCN(C)CCCN(CC(O)C(=O)NCCCCCCOC(=O)C(CCCCCC)CCCCCCCC)CC(O)C(=O)NCCCCCCOC(=O)C(CCCCCC)CCCCCCCC)CC(O)C(=O)NCCCCCCOC(=O)C(CCCCCC)CCCCCCCC` (centres unmarked) [Compound L0370], for which the IVIS was found to be 1.68E+07 under setting [13]; 1.43E+07 under setting [14]; 8.65E+05 under setting [15]; 3.34E+06 under setting [16]; 1.44E+07 under setting [17]. Moreover, the “% of organ targeting” value by setting is: under setting [15], 4.65%; under setting [16], 17.97%; under setting [17], 77.39%.

The record behind these values is US12233161B1, “Lipids and lipid nanoparticle formulations” (LONGUIDE BIOPHARMA CORPORATION, priority 2024, dated 2025).
